US7070965B1, “Small molecule anticancer compounds and related production process” (priority 1998, dated 2006)

How the values were obtained:
[1] = system: mouse liver cancer HAC cell line; assay: Enhancement of effectiveness of CP, mouse liver cancer HAC ascites model; type: in vivo, Kunming mice; details: CP 50 mg/kg i.p. only (positive control)
Description: Q-can oral liquid; mouse liver cancer HAC cell line; male Kunming mice weighing 20–25 g; commercial cyclophosphamide (CP).
Forty mice were randomly divided into 5 groups. In three test groups, 36%, 60% and 100% Q-can oral liquids (diluted with water) were given, respectively, while water was given in both control groups. On the 8th day, 0.2 ml HAC cancer cell suspensions (10^7/ml) were injected into the abdominal cavities of each mouse under aseptic condition. On the 1st, 3rd and 5th days after injection. CP (50 mg/kg) was injected i.p. into the mice in all test groups and positive control group. From the 9th day after injection, normal feeding was resumed as before the test. Date of death of each mouse was recorded, and the average life span and the rate of increase in life span were calculated. The rate of increase in life span (ILS %) is defined as following: […]

[2] = system: Lewis mouse lung tumor
Description: Concentrated Q-can oral liquid (containing specific branched-chain fatty acids 3.6 mg/ml); Female F1 mice (C57/B1 and DBA/2) weighing 18–22 g; Lewis mouse lung tumor.
The mice of the test group were administrated with concentrated Q-can oral liquid at a daily dose of 36 mg specific branched-chain fatty acids per kg weight for 10 days before transplantation of Lewis mouse lung tumor. All the mice were transplanted subcutaneously in the subaxillary region with a piece of Lewis tumor of approximately 2 mm in diameter. The treatments of intraperitoneal injection of chemotherapy drug Cytoxan (CTX) in 30 mg/kg were given once a day after transplantation over an 8 day period for the positive control group. The treatments for the normal control group were daily injection of normal saline for 8 days. The administration of concentrated Q-can oral liquid for the test group was initiated 10 days before tumor transplantation and continued for another 8 days. Finally all the animals were sacrificed by spinal elongation. Tumors were excised and body and tumor weights were recorded.

[3] = system: Human gastric adenocarcinoma SGC-7901 xenograft; assay: Human gastric adenocarcinoma SGC-7901 xenografted into nude mice; type: in vivo, Balb/c-nu/nu athymia mice; details: MMC 2.0 mg/kg i.p. Qd × 14
Description: Female Balb/c-nu/nu athymia mice, 6 weeks old, weighing 18–22 g, housed in specific pathogen free (SPF) condition throughout the course of experiment; concentrated Q-can oral liquid contains 3.6 mg/ml specific branched-chain fatty acids; the drug used for positive control mitomycin C (MMC) was commercially available from Kyowa Hakko Kogyo Co., Ltd., Japan.
Human gastric adenocarcinoma SGC-7901 xenograft was established and maintained. For the experiment, the xenograft fragments of diameter of about 2 mm were inoculated subcutaneously into the right submaxillary regions of nude mice. The animals were randomly divided into five groups five days after inoculation. […] groups, respectively, while concentrated Q-can oral liquid was given in test groups once a day p.o., starting on the same day, at daily doses of 18, 36 and 72 mg branched-chain fatty acids per kg weight, respectively, for 14 days. Experiment was terminated 20 days post-implantation, and mice were sacrificed by spinal elongation. Tumors were removed and the weights of treated versus control tumors were compared. Inhibition rate was calculated. The experiment was repeated once.

[4] = system: Human leukemia cell line K562; assay: MTT assay, inhibition of cell growth; type: cell-based; details: Homo sapiens, K562; 30 μg/ml; 24 hours; dissolved with NaOH solution, pH 7.5; read-out: Inhibitory rate (%) on K562 cell growth
Description: MTT assay was performed to test the cytotoxicity. The K562 and SGC7901 cells were maintained in exponential growth in RPMI 1640 medium supplemented with 15% heat-inactivated newborn calf serum. The cells were plated at a density of 2×10^4 cells/100 μl medium/well into 96-well plate with medium containing samples in five final concentrations (7.5, 15, 30, 60 and 90 μg/ml) for iso-C15 (either synthesized or extracted) and one final concentration (30 μg/ml) for the others. The media in control wells contained no samples. The cells were incubated at 37° C. in a highly humidified incubator under 5% CO2 atmosphere for 24 hours. The supernatant was removed by fast inversion of the plate. 20 μl of 5 mg/ml MTT solution were added into each well. Incubation was continued for 4 hours. DMSO 100 μl/well was added and the plate was vibrated for 10 minutes. A570nm was read at the Immunoreader BioTek EL311S.
The inhibition rate (%)=1−(mean A570nm in test wells/mean A570nm in control wells)

[5] = system: MCF-7 human breast adenocarcinoma cells; assay: Flow cytometry annexin V / PI apoptosis detection; type: cell-based; details: 60 μg/ml
Description: (§1) Human cancer cell lines DU-145 (prostate cancer), K562 (leukemia), HCT116 (colon cancer), H1688 (lung cancer), SUN423 (hepatocarcinoma), MCF7 (breast cancer), CRL-1687 (pancreatic cancer), and SUN-1 (gastric cancer) were obtained from American Type Culture Collection (ATCC). 30 ml blood was collected from a health person and normal peripheral mononuclear cells were separated by Ficoll separation solution (Sigma). All cells were maintained in RPMI 1640, DMEM, or McCoy medium supplemented with 10% FCS, […] streptomycin and 100 u/ml penicillin. Normal human peripheral mononuclear cells, K562 and SUN-1 were suspended cells. After spinning at 1,500 RPM for 5 min, supernatants were discharged and cells were resuspended and expended in fresh medium. The other tumor cell lines were adherent cells and were dispersed with 0.05% trypsin/0.01% EDTA (Irvine Scientific, CA) for expansion. Cells were seeded in T75 flasks at 2×10^6 cells/flask in culture medium supplemented with 10% fetal bovine serum and incubated overnight at 37° C. with 5% CO2. The adherent cells attached to the plate were striped with disposable cell scrapers (Fisher Scientific) after treated either with 1% iso-C15, anteiso-C15 or control solution for 1, 2, 4, 8 and 24 hours and then combined with respective float cells. Cells were then prepared for flow cytometry analysis, in situ cell death detection, DNA fragmentation and Western blot assay followed the preparation methods for each assay. Cell pellets treated for 2 and 4 hr with either iso-C15 or control were also stored at −70° C. for future studies of gene regulation.
A flow cytometer (FACScan) with Consort 30 software for gating analysis (Becton Dickinson, San Jose, Calif.) was used. The Apoptosis Detection kit (R&D Systems) was used to quantitatively determine the percentage of cells undergoing apoptosis by virtue of their ability to bind annexin V and exclude propidium iodide (PI). Cells were washed in cold PBS twice and resuspended in binding buffer. Fluorescent-labeled annexin V and PI were added to the cells. The cells undergoing apoptosis, expressing phosphotidyiserine on the outer leaflet of cell membranes, would bind annexin V. The cells in later stage of apoptosis or necrosis, with a compromised cell membrane, would allow PI to bind to the cellular DNA. The resulting cells were immediately analyzed by flow cytometer equipped with a single laser emitting excitation light at 488 nm. The annexin V and PI generated signals can be detected in signal detector FL1 and FL2, respectively. […]

[6] = system: SNU-1 human gastric carcinoma cell lines; assay: Apoptosis morphology, H&E, light microscope; type: cell-based; details: 60 μg/ml, 8 hours
Description: as §1, with “The adherent cells attached to the plate were striped with disposable cell scrapers (Fisher Scientific) after treated either with 1% iso-C15, anteiso-C15 or control solution for 1, 2, 4, 8 and 24 hours and then combined with respective float cells.” left out, “regulation. […]” for “regulation.”

[7] = system: SNU-423 human hepatocellular carcinoma cells; assay: Apoptosis morphology, light microscope; type: cell-based; details: 60 μg/ml, 24 hours
Description: as §1, with “The adherent cells attached to the plate were striped with disposable cell scrapers (Fisher Scientific) after treated either with 1% iso-C15, anteiso-C15 or control solution for 1, 2, 4, 8 and 24 hours and then combined with respective float cells.” left out, “regulation. […]” for “regulation.”

[8] = CTX 30 mg/kg i.p. once a day, 8 days

O=P1(N(CCCl)CCCl)NCCCO1 (stereo not drawn) [CP, cyclophosphamide]
ILS % (rate of increase in life span) [1]: 22.86% | life span [1]: 13.06 ± 3.03 days | mice No (>17 d) [1]: 1 | prolonged days [1]: 2.44 ± 2.58 days

O=P1(N(CCCl)CCCl)NCCCO1 (stereo not drawn) [CTX, Cytoxan]
body weight in. (initial) ([2]; CTX 30 mg/kg i.p.): 21.2 g | TIR [2, 8]: 62.6% | body weight fi. (final) [2, 8]: 20.3 g | tumor weight mean ± SD [2, 8]: 0.71 ± 0.36 g | viability ([2]; CTX i.p. injection, 8-day period): 70%

CO[C@@]12[C@H](COC(N)=O)C3=C(C(=O)C(C)=C(N)C3=O)N1C[C@@H]1N[C@@H]12 [MMC, mitomycin C]
Body wt. Fi. ([3]; Test I): 22.0 | Body wt. In. ([3]; Test I): 22.4 | Inhibition % ([3]; Test I): 71.49% | Tumor wt. X ± SD ([3]; Test I): 0.33 ± 0.24 g | Body wt. Fi. ([3]; Test II): 21.1/21.1 | Body wt. In. ([3]; Test II): 21.1/21.1 | Inhibition % ([3]; Test II): 73.51% | Tumor wt. X ± SD ([3]; Test II): 0.30 ± 0.33 g

CCC(C)CCCCCCCCCC(=O)O (stereo not drawn) [anteiso-C14, 11-methyltridecanoic acid]
inhibition at 30 µg/mL [4]: 72.6%

CCC(C)CCCCCCCCCCC(=O)O (stereo not drawn) [anteiso-C15, 12-methyltetradecanoic acid]
FL1/FL2 pattern (annexin V / PI), apoptosis ([5]; 4 hours): many cells were undergoing apoptosis | FL1/FL2 pattern (annexin V / PI), apoptosis ([5]; 24 hours): the majority of cells had already died | inhibition at 30 µg/mL [4]: 73.1% | morphological changes indicative of apoptosis [6]: chromatin condensation and cytoplasmic granularity were noted | morphological changes indicative of apoptosis [7]: exhibited cell volume decrease due to shrinkage and bubbles inside the cell

CCC(C)CCCCCCCCCCCC(=O)O (stereo not drawn) [anteiso-C16, 13-methylpentadecanoic acid]
inhibition at 30 µg/mL [4]: 70.7%

CCC(C)CCCCCCCCCCCCCC(=O)O (stereo not drawn) [anteiso-C18, 15-methylheptadecanoic acid]
inhibition at 30 µg/mL [4]: 71.7%

CC(C)CCCCCCCCC(=O)O [iso-C12, 10-methylundecanoic acid]
inhibition at 30 µg/mL [4]: 70.7%

CC(C)CCCCCCCCCC(=O)O [iso-C13, 11-methyllauric acid]
inhibition at 30 µg/mL [4]: 71%

CC(C)CCCCCCCCCCC(=O)O [iso-C14, 12-methyltridecanoic acid]
inhibition at 30 µg/mL [4]: 72.2%

CC(C)CCCCCCCCCCCCC(=O)O [iso-C16, 14-methylpentadecanoic acid]
inhibition at 30 µg/mL [4]: 71.6%

CC(C)CCCCCCCCCCCCCC(=O)O [iso-C17, 15-methylpalmitic acid]
inhibition at 30 µg/mL [4]: 70.8%

CC(C)CCCCCCCCCCCCCCC(=O)O [iso-C18, 16-methylheptadecanoic acid]
inhibition at 30 µg/mL [4]: 68.4%

CC(C)CCCCCCCCCCCCCCCC(=O)O [iso-C19, 17-methylstearic acid]
inhibition at 30 µg/mL [4]: 69.2%

CC(C)CCCCCCCCCCCCCCCCC(=O)O [iso-C20, 18-methylnonadecanoic acid]
inhibition at 30 µg/mL [4]: 62.6%
